Measured values: PMC10635799, “Analogs of FTY720 inhibit TRPM7 but not S1PRs and exert multimodal anti-inflammatory effects” (The Journal of General Physiology, 2023)

How the values were obtained:
alveolar macrophages = assay: LPS-induced cytokine expression in primary alveolar macrophages (qRT-PCR); format: cell-based, mouse; details: 10 µM pretreatment, LPS 1 µg/ml for 3 h
Description: Alveolar macrophages were isolated and cultured from wildtype (WT) C57BL/6 mice (Strain #000664; Jackson Laboratory) using an established protocol ([Nayak et al., 2018]). […] Using a 5-ml syringe filled with 3 ml of bronchoalveolar lavage buffer (“BAL buffer”: Ca^2+- and Mg^2+-free PBS + 1 mM EDTA), the lungs were first filled with ∼2 ml of BAL buffer, then flushed five times in a cycle involving the installation and removal of 1 ml of buffer. The collected BAL fluid was pooled and the cyclical perfusion step was repeated with fresh buffer until a total of ∼10 ml of BAL fluid was collected. BAL fluid with gross evidence of blood contamination was discarded. A pellet was obtained through centrifugation at 500 × g for 5 min, and contaminating red blood cells were lysed by resuspending cells for 5 min in 5 ml of ice-cold ACK Lysis buffer (A1049201; Gibco). The cells were then pelleted at 500 × g for 5 min, resuspended in alveolar macrophage culture media (DMEM supplemented with 10% FBS, 20% L-929 culture supernatant, 1 mM sodium pyruvate, 10 mM HEPES, and 1× penicillin/streptomycin), and plated onto untreated tissue culture dishes for 24 h. The media was exchanged prior to use to remove unattached cells.
RAW 264.7 macrophages or BMDMs were seeded at a density of 250,000 cells per well into a 12-well tissue culture plate in 1 ml of media and left to incubate overnight. The indicated drug or vehicle control was added to each well, and the plate was agitated and left to incubate for 10 min. […] Cells were washed with PBS and then RNA isolation was performed using RNeasy Plus Micro Kit (74134; Qiagen). cDNA was produced using GoScript Reverse Transcriptase (A5004; Promega) and a quantitative PCR was performed using SensiFast SYBR (98020; Bioline) and Bio-Rad CFX Connect thermocycler. […] Fold-changes are all reported relative to untreated controls for each experiment and were calculated using the ∆∆Ct method, with β2-microglobulin used as the housekeeping gene for each sample. […]

BV-2 microglia = assay: LPS-induced cytokine expression in BV-2 microglia (qRT-PCR); format: cell-based, mouse; details: 10 µM pretreatment, LPS 1 µg/ml for 3 h
Description: RAW 264.7 macrophages or BMDMs were seeded at a density of 250,000 cells per well into a 12-well tissue culture plate in 1 ml of media and left to incubate overnight. The indicated drug or vehicle control was added to each well, and the plate was agitated and left to incubate for 10 min. The cells were then treated with LPS (1 μg/ml) or an equivalent volume of PBS, agitated, and left to incubate for 3 h. Cells were washed with PBS and then RNA isolation was performed using RNeasy Plus Micro Kit (74134; Qiagen). cDNA was produced using GoScript Reverse Transcriptase ([…]; Promega) and a quantitative PCR was performed using SensiFast SYBR (98020; Bioline) and Bio-Rad CFX Connect thermocycler. Each datum represents an individual, biological replicate that is the mean of duplicate technical replicates. Fold-changes are all reported relative to untreated controls for each experiment and were calculated using the ΔΔCt method, with β2-microglobulin used as the housekeeping gene for each sample. The experiment was performed similarly with BV-2 microglia and alveolar macrophages, except that cells were plated at a density of 100,000 cells per well into a 24-well tissue culture plate with 1 ml of media per well.

[1] = tested on: LPS-induced endotoxemia in mice; assay: Sublethal LPS-induced peritonitis (endotoxemia) mouse model; format: in vivo
Description: 12-wk-old WT C57BL/6J mice were purchased from Jackson Laboratory (Strain #000664). An equal number of male and female mice were randomly assigned to each treatment group. All studies were conducted according to a protocol approved by the University of Virginia Animal Care and Use Committee. Mice were socially housed with littermate controls and provided with free access to a standard chow diet and water. Baseline weights were taken <1 h prior to the experiment for individual dose calculations. For the sublethal model, mice were injected intraperitoneally with LPS (1 mg/kg), VPC01091.4 (30 mg/kg), both LPS and VPC01091.4, or vehicle alone (20% 2-hydroxypropyl-β-cyclodextrin in PBS). The volume injected was 200 μl and solutions were sterile-filtered (0.45 µm) prior to use. […] Mice were euthanized at 4 h, then blood was collected via cardiac puncture and anticoagulated with K2EDTA. […] The lungs were dissected, coarsely homogenized, and partitioned into separate samples for RNA extraction and mass spectrometry analysis. Samples to be used for RNA were stored at −20°C in RNAlater Stabilization Solution (AM7021; Thermo Fisher Scientific) while samples for use in mass spectrometry were flash-frozen in liquid nitrogen. Whole brains were physically dissected, coarsely homogenized, and stored for later processing as with the lung tissue. 10 μl of each whole blood sample was reserved for mass spectrometry analysis, 15 μl was used to obtain lymphocyte counts with a Hematology Analyzer (Heska Element HT5), and the remainder was used to produce plasma through centrifugation at 2,000 × g for 15 min at 4°C. Plasma cytokines were then measured using a multiplex mouse proinflammatory cytokine panel performed by the University of Virginia Flow Cytometry Core (RRID: SCR_017829). Cytokine values beyond the limit of detection (LOD) are reported as the LOD value. Tissue RNA was isolated from preserved samples using 30 min of automated homogenization at 30 Hz with 5-mm ball-bearings in RLT Plus Lysis Buffer (TissueLyser II; Qiagen); RNA was then isolated using a RNeasy Plus Micro Kit (74134; Qiagen). Whole-tissue cytokine expression changes were then measured using qRT-PCR as with ex vivo cell culture experiments. For the lethal dose model, mice were injected with LPS (25 mg/kg), both LPS and VPC01091.4, or vehicle alone (20% 2-hydroxypropyl-β-cyclodextrin in PBS). Symptoms were scored according to a standardized clinical score sheet that assessed conjunctivitis, lethargy, degradation in hair grooming behavior, stool changes, and facial grimace (Table 1). Mice that lost >20% of their starting body weight or received a clinical score of 8 or greater were euthanized.

[2] = tested on: LPS-induced endotoxemia in mice; assay: Lethal dose (LD50) LPS mouse model; format: in vivo; details: LD50 LPS + 30 mg/kg
[3] = LPS 1 mg/kg + 30 mg/kg i.p., 4 h, vs LPS
[4] = whole-brain qRT-PCR, LPS 1 mg/kg + 30 mg/kg i.p., 4 h, vs LPS

SMILES: CCCCCCCCc1ccc([C@@H]2CC[C@@](N)(CO)C2)cc1 [VPC01091.4, ((1S,3R)-1-amino-3-(4-octylphenyl)cyclopentyl)methanol]
- LPS-induced CCL4 expression (alveolar macrophages): significantly suppressed
- LPS-induced IL-1β expression (alveolar macrophages): significantly suppressed
- LPS-induced TNFα expression (alveolar macrophages): significantly suppressed
- LPS-induced inflammatory cytokine expression (BV-2 microglia): direct anti-inflammatory effects
- Tolerability in mice ([1]; 30 mg/kg i.p.): well-tolerated
- Absolute lymphocyte counts ([1]; 30 mg/kg i.p., 4 h, between treatment groups): no significant differences
- Plasma IL-10 ([1]; LPS 1 mg/kg + 30 mg/kg i.p., 4 h): higher levels
- Plasma IFNγ [1, 3]: significantly suppressed
- Plasma IL-1β [1, 3]: significantly suppressed
- Plasma TNFα [1, 3]: significantly suppressed
- Brain expression of CCL4 [1, 4]: significantly suppressed
- Brain expression of IL-1β [1, 4]: significantly suppressed
- Brain expression of IL-6 [1, 4]: significantly suppressed
- Brain expression of TNFα [1, 4]: significantly suppressed
- Lung expression of IL-6 ([1]; whole-lung qRT-PCR, LPS 1 mg/kg + 30 mg/kg i.p., 4 h, vs LPS): non-significantly lower
- Survival rate ([2]; 132 h, LPS-only 50%, control 100%, P = 0.127): 83.33%
- Clinical scores (symptoms) ([2]; vs LPS only, 132 h): significantly reduced at a number of timepoints
- Weight change from baseline ([2]; vs LPS only, after first 48 h): recovering at a higher nadir and at an earlier timepoint
